From patent US10722523B2, “Chemoimmunotherapy for epithelial cancer” (THE REGENTS OF THE UNIVERSITY OF CALIFORNIA, priority 2015, dated 2020) come the findings set out here.

What all share (assay type): in vivo, mouse
One assay deals with TRAMP-C2 tumors. The assay is described as follows: s.c. TRAMP-C2 tumor model with adoptive T cell transfer (ATCT).
A further assay relates to Myc-Cap (MC) tumors. The assay is described as follows: s.c. Myc-Cap (MC) prostate tumor model. The source says: (§1) All TRAMP mice, their derivatives and s.c. Myc-Cap transplantation were in the FVB genetic background and their basic immune parameters are shown in FIG. 15a-m. For s.c. TRAMP-C2 tumors, C57BL/6 mice were used. In both s.c. tumors, 2-3×10^6 cells/mouse were transplanted. More detailed information is as follows.
(§2) Mouse treatment studies were “matched design control trials.” Accordingly, mice were randomly chosen and paired based on sex (male), age (FIG. 6a) and tumor size. For transplanted tumor models, tumor size was defined by the median tumor volume (e.g. 400 mm^3, for late treatments, FIG. 6a,f). For TRAMP transgenic tumor models, treatment decisions were made based on age and mice were randomly chosen including a control littermate. An identification code was assigned to each tumor-bearing mouse both in the transplanted and transgenic models, and the investigators were blinded to treatment allocation at the time of tumor volume measurement, autopsy and analysis.
2×10^6 Myc-Cap^11 or 3×10^6 TRAMP-C2^12 cells (purchased from ATCC) were s.c. injected into the right flank. Tumors were measured every 2-3 days using a caliper. Tumor volumes were calculated as width^2×length/2.
B cells were depleted as previously described^13. Mice were weekly injected (i.p.) with a mixture of monoclonal antibodies, each at 150 μg/mouse: rat anti-mouse CD19 (clone 1D3), rat anti-mouse B220 (clone RA36B2), and mouse anti-mouse CD22 (clone CY34). After 48 hrs, the mice were injected with a secondary antibody (mouse anti-rat kappa chain; GeneTex) at 150 μg/mouse. In addition, mice were injected weekly, but not on the same day, with 250 μg/mouse rat anti-mouse CD20 (Genentech). Rat anti-mouse IgG2a and IgG1 were used as isotype controls. Mice were treated for 3 weeks in total (FIG. 1g; FIG. 7i-p). […]

Another assay concerns TRAMP prostate tumors. As to the kind of experiment: TRAMP spontaneous prostate cancer model, weekly low dose oxaliplatin. The following applies: for prostate tumor regression 30 days after lymphocyte transfer: TRAMP.
Source text: as §1
C57BL/6 and FVB control mice were purchased from Charles River Laboratories and CD45.1 mice^1 were purchased from Jackson Laboratory, and all were bred at the University of California San Diego (UCSD) animal facility. C57BL/6-Tg(TRAMP)8247Ng/J (TRAMP mice)^2 were backcrossed to the FVB strain for more than 10 generations. The median survival of TRAMP-FVB mice was 23 weeks compared to 52 weeks for TRAMP-C57BL/6 mice. TRAMP mice were crossed with B cell-deficient (Jh^−/−) mice^3, CTL-deficient (Cd8a^−/−) mice^4 or Rag1^−/− mice, which lack both B and T cells^5, all in the FVB-background. OT-I mice were obtained from Taconic^6. Tgfbr2^F/F (FVB-background) mice were obtained from Dr. Hal Moses at Vanderbilt University^7. Tcrb^−/−, Cd19-Cre, Il10^−/− and CD45.1 mice were purchased from the Jackson Laboratory. IgA gene-deficient (Iga^−/−) mice^8 were obtained from Baylor College of Medicine. Pdl1/2^−/− mice were obtained from Genentech (San Francisco, Calif.). Cd19-Cre and Iga^−/− mice were backcrossed to the FVB strain for more than 10 generations. All mice were maintained in filter-topped cages on autoclaved food and water at the UCSD animal facility and all experiments were performed in accordance with UCSD and NIH guidelines and regulations.
as §2
Anti-PD-L1 antibody was i.v. injected at 10 mg/kg once, followed by 5 mg/kg bi-weekly. Mice were treated for three weeks for a total of 7 doses/animal.

Source text for TRAMP-C2 tumors: Immunogenic TRAMP-C2 cells were s.c. inoculated into WT or Tcrβ^−/− mice. […] Immunogenic TRAMP-C2 cells were s.c. inoculated into WT or Rag1^−/− −×OT-1 mice (no B cells), that harbor CD8^+ T cells specific for chicken ovalbumin which is not expressed by TRAMP-C2 cells. […] All results are means±s.e.m. Mann-Whitney and t tests were used to calculate statistical significance.
For adoptive T cell transfer (ATCT) CD8^+ T cells were isolated from single cell suspensions, prepared from spleens and lymph nodes as described above, using CD8α-specific microbeads and MACS-columns (both Miltenyi Biotec GmbH, Bergisch Gladbach, Germany), and 5×10^6 CD8^+ T cells were transferred intraperitoneally (i.p.; FIG. 14a-j). […] For adoptive splenocytes transfer (ACT), single cell suspensions prepared from spleens were transferred i.p., with one total spleen injected per mouse. Labelling with 5-(and 6-) carboxyfluorescein diacetate succinimidyl ester (CFSE; Molecular Probes, Eugene, Oreg.) was done according to manufacturer's protocol. […] Purity was analyzed on a Beckman Coulter Cyan ADP flow cytometer and was always >98%.

As for `O=C1[O][Pt]2([NH][C@@H]3CCCC[C@H]3[NH]2)[O]C1=O` [oxaliplatin], the “TRAMP-C2 tumor rejection, oxaliplatin combined with ATCT” value in the assay with TRAMP-C2 tumors (B cell-containing Tcrβ−/− mice) is listed as “no tumor rejection took place”. In the assay with TRAMP-C2 tumors (Rag1−/−, OT-1 mice (no B cells)), the “TRAMP-C2 tumor growth, ATCT together with oxaliplatin” value is on record as “tumor growth was inhibited”. For the same compound, the “response of MC tumors” value with Myc-Cap (MC) tumors (Cd8a−/− mice) is given as “No response”. The “response of MC tumors to oxaliplatin with IgA ablation” value in the assay on Myc-Cap (MC) tumors (Iga−/− mice versus WT) is reported as “potentiated the response to oxaliplatin”. Besides, in the assay with Myc-Cap (MC) tumors (LD, 6 mg/kg, 3 weekly cycles, tumors 400 mm3), the “regression of MC tumors raised in Jh−/− mice” value is “led to regression of MC tumors”. Besides, in the assay on Myc-Cap (MC) tumors (MC tumors in Rag1−/− mice), the “tumor regression and CTL activation after T cell ± B cell transfer” value was “induced tumor regression and CTL activation only in mice receiving T cells, or T cells+TGFβR2-deficient B cells”. Besides, in the assay with Myc-Cap (MC) tumors (WT and Jh−/− mice), the “tumor infiltration with CD45+ cells” value is on record as “enhanced tumor infiltration with CD45^+ cells”. Moreover, the “response of small MC tumors (≤100 mm3)” value in the assay with Myc-Cap (MC) tumors (WT mice, early treatment) was “chemotherapy responsive”. Also, the “response of large MC tumors (≥350-400 mm3)” value in the assay on Myc-Cap (MC) tumors (WT versus Jh−/− mice, late treatment) is recorded as “shrank upon oxaliplatin treatment only in Jh^−/− mice”. The “caspase 3 activation in tumors (apoptosis)” value in the assay with Myc-Cap (MC) tumors (associated with oxaliplatin responsiveness) is reported as “enhanced caspase 3 activation”. For the same compound, the “tumoral DNA damage response (histone H2AX phosphorylation)” value in the assay with Myc-Cap (MC) tumors (regardless of host genotype) was “similarly activated”. The “PC growth, late treatment” value with TRAMP prostate tumors (B cell-deficient TRAMP, Jh−/− mice) is “remained oxaliplatin sensitive”. In the assay with TRAMP prostate tumors (LD oxaliplatin weekly, dependent on CTL), the TRAMP mouse survival entry is on record as “enhanced TRAMP mouse survival”. Also, the “prostate tumor regression 30 days after lymphocyte transfer” value with TRAMP prostate tumors (Rag1−/− mice receiving T and B cells) was “led to tumor regression”; in the assay with TRAMP prostate tumors (Rag1−/− mice receiving only T cells), “complete tumor regression”. Further, the “response of ≥0.7 g tumors to late chemotherapy” value with TRAMP prostate tumors (WT TRAMP mice, 6 mg/kg weekly, late treatment) is listed as “largely resistant”. The “response of early (≤0.2 g) TRAMP tumors” value in the assay on TRAMP prostate tumors (early treatment, regardless of B cell status) is “responded”.
